Measurements published in patent US7135499B2, “Active substance combinations having insecticidal and acaricidal properties” (priority 2002, dated 2006).
“And” between values parts separate entries of the source, which are not always exact repeats. Identical values can stand only once. Like-named read-outs stand apart in the source and are kept apart here.

Key:
[1] = tested on: caterpillars of the diamondback moth (Plutella xylostella, resistant strain); experiment: Plutella test, resistant strain; assay type: in vivo
[2] = tested on: caterpillars of the diamondback moth (Plutella xylostella, sensitive strain); experiment: Plutella test, sensitive strain; assay type: in vivo
[3] = tested on: Heliothis armigera caterpillars; experiment: Heliothis armigera test; assay type: in vivo; conditions: for pest or weed control at 3 ppm: read-out: Kill rate in % found, 3 ppm; for pest or weed control at 0.12 ppm: read-out: Kill rate in % found, 0.12 ppm; for pest or weed control at 0.024 ppm: read-out: Kill rate in % found, 0.024 ppm
[4] = tested on: caterpillars of the armyworm (Spodoptera frugiperda); experiment: Spodoptera frugiperda test; assay type: in vivo; conditions: for pest or weed control at 0.6 ppm: read-out: Kill rate in % found, 0.6 ppm; for pest or weed control at 0.16 ppm: read-out: Kill rate in % found, 0.16 ppm
[5] = tested on: caterpillars of the armyworm (Spodoptera exigua); experiment: Spodoptera exigua test; assay type: in vivo
[6] = tested on: larvae of the mustard beetle (Phaedon cochleariae); experiment: Phaedon larvae test
[7] = tested on: green peach aphid (Myzus persicea); experiment: Myzus test; assay type: in vivo
[8] = tested on: cotton aphid (Aphis gossypii); experiment: Aphis gossypii test; assay type: in vivo; conditions: after 6 d
[9] = Helicoverpa armigera, 72 h, after 3 d
[10] = Spodoptera frugiperda, 144 h, after 6 d
[11] = Helicoverpa armigera, 144 h, after 6 d
[12] = Spodoptera frugiperda, 72 h, after 3 d

With `O=C(NC(=O)c1ccccc1Cl)Nc1ccc(OC(F)(F)F)cc1` [triflumuron] the “Kill rate in % found” value ([1]; 3 ppm, after 6 d) was 0%, the “Kill rate in % found” value ([2]; 0.6 ppm, after 3 d) was 0% and the pest or weed control at 15 ppm ([3]; Helicoverpa armigera, 72 h, read-out: Kill rate in % found, 15 ppm, after 3 d) was 0%. The pest or weed control at 0.12 ppm ([4]; Spodoptera frugiperda, 72 h, read-out: Kill rate in % found, 0.12 ppm, after 3 d) was 5%, the “Kill rate in % found” value ([5]; 15 ppm, after 3 d) was 15% and the “Kill rate in % found” value ([6]; 0.6 ppm, after 6 d) was 0%.
`COc1cccc(C(=O)NN(C(=O)c2cc(C)cc(C)c2)C(C)(C)C)c1C` [methoxyfenozide] was tested, and the “Kill rate in % found” value ([1]; 0.6 ppm, after 6 d) was 0%, the pest or weed control at 3 ppm [3, 9] was 50% and the pest or weed control at 0.6 ppm [4, 10] was 5%.
For `CN/C(=N\[N+](=O)[O-])NCc1cnc(Cl)s1` [clothianidin], the “Kill rate in % found” value ([7]; 0.6 ppm, after 6 d) was 60% and the pest or weed control at 3 ppm [3, 9] was 10%.
For `CC1(C)[C@H](C(=O)O[C@H](C#N)c2cccc(Oc3ccccc3)c2)[C@@H]1C=C(Br)Br` [deltamethrin], the “Kill rate in % found” value ([2]; 0.00128 ppm, after 6 d) was 40%, the pest or weed control at 0.0064 ppm ([3]; Helicoverpa armigera, 96 h, read-out: Kill rate in % found, 0.0064 ppm, after 4 d) was 10% and the pest or weed control at 0.0064 ppm ([4]; Spodoptera frugiperda, 96 h, read-out: Kill rate in % found, 0.0064 ppm, after 4 d) was 0%. The “Kill rate in % found” value ([5]; 0.00128 ppm, after 4 d) was 0%.
In the case of `N#Cc1nn(-c2c(Cl)cc(C(F)(F)F)cc2Cl)c(N)c1[S+]([O-])C(F)(F)F` (centres unmarked) [fipronil], the “Kill rate in % found” value ([2]; 0.12 ppm, after 3 d) is reported as 65%, the pest or weed control at 0.12 ppm [3, 11] is reported as 10% and the pest or weed control at 0.6 ppm [4, 12] is reported as 20%.
`N#C/N=C1\SCCN1Cc1ccc(Cl)nc1` [thiacloprid] was tested, and the “Kill rate in % found” value ([8]; 3 ppm) was 50%, the “Kill rate in % found” value ([7]; 3 ppm, after 6 d) was 60% and the “Kill rate in % found” value ([1]; 3 ppm, after 3 d) was 5%. The “Kill rate in % found” value ([6]; 15 ppm, after 6 d) was 85%.
In the case of `CN1COCN(Cc2cnc(Cl)s2)/C1=N/[N+](=O)[O-]` [thiamethoxam], the “Kill rate in % found” value ([7]; 0.6 ppm, after 1 d) is reported as 85%, the “Kill rate in % found” value ([1]; 3 ppm, after 6 d) is reported as 0% and the “Kill rate in % found” value ([6]; 15 ppm, after 3 d) is reported as 85%.
In the case of `O=C(NC(=O)c1c(F)cccc1F)Nc1ccc(Oc2ccc(C(F)(F)F)cc2Cl)cc1F` [flufenoxuron], the “Kill rate in % found” value ([1]; 0.12 ppm, after 6 d) is reported as 40%, the “Kill rate in % found” value ([2]; 0.12 ppm, after 3 d) is reported as 0% and the pest or weed control at 0.12 ppm [3, 11] is reported as 15%. The “Kill rate in % found” value ([5]; 0.6 ppm, after 3 d) was 0% and the “Kill rate in % found” value ([6]; 3 ppm, after 3 d) was 0%.
For `COC(=O)N(C(=O)N1COC2(C(=O)OC)Cc3cc(Cl)ccc3C2=N1)c1ccc(OC(F)(F)F)cc1` (centres unmarked) [indoxacarb], the “Kill rate in % found” value ([1]; 0.12 ppm, after 6 d) was 50%, the “Kill rate in % found” value ([2]; 0.024 ppm, after 3 d) was 0% and the pest or weed control at 0.024 ppm [3, 11] was 0%. For the same molecule, the pest or weed control at 0.6 ppm [4, 12] was 60%, the “Kill rate in % found” value ([5]; 0.6 ppm, after 3 d) was 20% and the “Kill rate in % found” value ([6]; 0.6 ppm, after 3 d) was 35%.
emamectin-benzoate was tested, and the “Kill rate in % found” value ([1]; 0.00024 ppm, after 6 d) was 15%, the “Kill rate in % found” value ([2]; 0.00024 ppm, after 6 d) was 10% and the “Kill rate in % found” value ([3]; 0.00024 ppm, after 6 d) was 0%. For the same molecule, the “Kill rate in % found” value ([4]; 0.006 ppm, after 3 d) was 70%, the “Kill rate in % found” value ([5]; 0.0012 ppm, after 6 d) was 20% and the “Kill rate in % found” value ([6]; 0.006 ppm, after 6 d) was 10%.
In the case of abamectin, the “Kill rate in % found” value ([2]; 0.00096 ppm, after 3 d) is reported as 35%, the “Kill rate in % found” value ([3]; 0.0048 ppm, after 6 d) is reported as 30% and the “Kill rate in % found” value ([4]; 3 ppm, after 3 d) is reported as 25%. The “Kill rate in % found” value ([5]; 3 ppm, after 6 d) was 70% and the “Kill rate in % found” value ([6]; 0.12 ppm, after 3 d) was 25%.
spinosad was tested, and the “Kill rate in % found” value ([2]; 0.0064 ppm, after 3 d) was 5% and the “Kill rate in % found” value ([4]; 0.032 ppm, after 3 d) was 35%.
In the case of `Cc1cc(C(F)(C(F)(F)F)C(F)(F)F)ccc1NC(=O)c1cccc(I)c1C(=O)NC(C)(C)CS(C)(=O)=O` [(I), N^2-[1,1-dimethyl-2-(methylsulphonyl)ethyl]-3-iodo-N^1-{2-methyl-4-[1,2,2,2-tetrafluoro-1-(trifluoromethyl)ethyl]phenyl}phthalamide], the “Kill rate in % found” value ([8]; 500 ppm) is reported as 0%, the “Kill rate in % found” value ([7]; 100 ppm, after 1 d) is reported as 0% and the “Kill rate in % found” value ([7]; 500 ppm, after 6 d) is reported as 0%. For the same molecule, the “Kill rate in % found” value ([1]; 0.0048 ppm, after 6 d) was 10% and 0%, the “Kill rate in % found” value ([1]; 0.02 ppm, after 6 d) was 30% and the “Kill rate in % found” value ([1]; 0.024 ppm, after 3 d) was 70%. For the same molecule, the “Kill rate in % found” value ([2]; 0.0048 ppm, after 3 d) was 0%, the “Kill rate in % found” value ([2]; 0.0048 ppm, after 6 d) was 25% and the “Kill rate in % found” value ([2]; 0.0064 ppm, after 6 d) was 60%. The “Kill rate in % found” value ([2]; 0.024 ppm, after 3 d) was 55%, the “Kill rate in % found” value ([2]; 0.032 ppm, after 3 d) was 65% and the pest or weed control at 0.024 ppm [3, 9] was 80%. It also gave a pest or weed control at 0.1 ppm ([3]; Helicoverpa armigera, 72 h, read-out: Kill rate in % found, 0.1 ppm, after 3 d) of 80%, a pest or weed control at 0.12 ppm [3, 9] of 80% and a pest or weed control at 0.032 ppm ([3]; Helicoverpa armigera, 96 h, read-out: Kill rate in % found, 0.032 ppm, after 4 d) of 90%. It also gave a pest or weed control at 0.024 ppm [3, 11] of 70%, a pest or weed control at 0.16 ppm [4, 12] of 70% and a pest or weed control at 0.16 ppm ([4]; Spodoptera frugiperda, 96 h, after 4 d) of 70%. For the same molecule, the pest or weed control at 0.02 ppm ([4]; Spodoptera frugiperda, 144 h, read-out: Kill rate in % found, 0.02 ppm, after 6 d) was 5%, the pest or weed control at 0.16 ppm [4, 10] was 95% and the “Kill rate in % found” value ([5]; 0.024 ppm, after 6 d) was 40%. For the same molecule, the “Kill rate in % found” value ([5]; 0.032 ppm, after 4 d) was 10%, the “Kill rate in % found” value ([5]; 0.12 ppm, after 6 d) was 85% and the “Kill rate in % found” value ([6]; 0.12 ppm, after 3 d) was 0%. For the same molecule, the “Kill rate in % found” value ([6]; 0.12 ppm, after 6 d) was 0%, the “Kill rate in % found” value ([6]; 0.6 ppm, after 3 d) was 0% and the “Kill rate in % found” value ([6]; 3 ppm, after 3 d) was 60%. The “Kill rate in % found” value ([6]; 3 ppm, after 6 d) was 70%.
`CN/C(=N\[N+](=O)[O-])NCC1CCOC1` (centres unmarked) [dinotefuran] was tested, and the “Kill rate in % found” value ([7]; 3 ppm, after 1 d) was 15% and the pest or weed control at 3 ppm ([4]; Spodoptera frugiperda, 72 h, read-out: Kill rate in % found, 3 ppm, after 3 d) was 40%.
Work on `CC[S+]([O-])c1c(C#N)nn(-c2c(Cl)cc(C(F)(F)F)cc2Cl)c1N` (centres unmarked) [ethiprole] yielded a pest or weed control at 20 ppm ([4]; Spodoptera frugiperda, 144 h, read-out: Kill rate in % found, 20 ppm, after 6 d) of 10%.
